Reference: the supplement of paper PMC10307832

Experiments:
Test in all cases: relative viability (nuclei count vs DMSO), 5 days (fraction); higher = more cells survive
201T = test system: 201T
How it was run: (§1)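 Cells from lung cancer lines were seeded into 1536-well plates and, one day later, dosed by pin tool. Treatments were either a single drug or a fixed dose of an anchor drug with five library-drug doses (not always all listed) in √10 steps. After 5 days, nuclei were stained in a one-step fixation (final 0.05% Triton X-100, 1% formaldehyde, 1 ug/ml Hoechst) and counted on 4× images, and relative viability is the treated-to-vehicle nuclei ratio, as the median of duplicate plates.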

A-427 = test system: A-427
How it was run: as §1

BEN = test system: BEN
How it was run: as §1

EKVX = test system: EKVX
How it was run: as §1

EMC-BAC-2 = test system: EMC-BAC-2
How it was run: as §1

EPLC-272H = test system: EPLC-272H
How it was run: as §1

HCC-44 = test system: HCC-44
How it was run: as §1

HCC-827 = test system: HCC-827
How it was run: as §1

LCLC-103H = test system: LCLC-103H
How it was run: as §1

LK-2 = test system: LK-2
How it was run: as §1

LXF-289 = test system: LXF-289
How it was run: as §1

NCI-H1651 = test system: NCI-H1651
How it was run: as §1

NCI-H1793 = test system: NCI-H1793
How it was run: as §1

NCI-H1915 = test system: NCI-H1915
How it was run: as §1

NCI-H2087 = test system: NCI-H2087
How it was run: as §1

NCI-H2126 = test system: NCI-H2126
How it was run: as §1

NCI-H2347 = test system: NCI-H2347
How it was run: as §1

NCI-H358 = test system: NCI-H358
How it was run: as §1

NCI-H460 = test system: NCI-H460
How it was run: as §1

NCI-H596 = test system: NCI-H596
How it was run: as §1

Work on O=C(O)CCCCC(CCSCc1ccccc1)SCc1ccccc1 (centres undefined) [CPI-613] + NC(=O)Nc1cc(-c2cccc(F)c2)sc1C(=O)N[C@H]1CCCNC1 [AZD7762] (partner 0.2 µM) yielded a relative viability (201T; first compound 5 µM) of 0.581, a relative viability (201T; first compound 15.81 µM) of 0.62 and a relative viability (201T; first compound 50 µM) of 0.66. The relative viability (201T; first compound 158.11 µM) was 0.318, the relative viability (201T; first compound 500 µM) was 0.564 and the relative viability (A-427; first compound 5 µM) was 0.66. It also gave a relative viability (A-427; first compound 15.81 µM) of 0.642, a relative viability (A-427; first compound 50 µM) of 0.661 and a relative viability (A-427; first compound 158.11 µM) of 0.326. The relative viability (A-427; first compound 500 µM) was 0.173, the relative viability (BEN; first compound 5 µM) was 0.653 and the relative viability (BEN; first compound 15.81 µM) was 0.485. The relative viability (BEN; first compound 50 µM) was 0.697, the relative viability (BEN; first compound 158.11 µM) was 0.672 and the relative viability (BEN; first compound 500 µM) was 0.526. It also gave a relative viability (EKVX; first compound 5 µM) of 0.731, a relative viability (EKVX; first compound 15.81 µM) of 0.646 and a relative viability (EKVX; first compound 50 µM) of 0.505. For the same molecule, the relative viability (EKVX; first compound 500 µM) was 0.62, the relative viability (EMC-BAC-2; first compound 5 µM) was 1.1 and the relative viability (EMC-BAC-2; first compound 15.81 µM) was 1.05. The relative viability (EMC-BAC-2; first compound 50 µM) was 1.14, the relative viability (EMC-BAC-2; first compound 158.11 µM) was 0.902 and the relative viability (EMC-BAC-2; first compound 500 µM) was 0.529. It also gave a relative viability (EPLC-272H; first compound 5 µM) of 0.209, a relative viability (EPLC-272H; first compound 15.81 µM) of 0.302 and a relative viability (EPLC-272H; first compound 50 µM) of 0.189. For the same molecule, the relative viability (EPLC-272H; first compound 158.11 µM) was 0.143, the relative viability (EPLC-272H; first compound 500 µM) was 0.3 and the relative viability (HCC-44; first compound 5 µM) was 1.03. It also gave a relative viability (HCC-44; first compound 15.81 µM) of 0.966, a relative viability (HCC-44; first compound 50 µM) of 1.01 and a relative viability (HCC-44; first compound 158.11 µM) of 0.967. The relative viability (HCC-44; first compound 500 µM) was 0.66, the relative viability (HCC-827; first compound 5 µM) was 0.217 and the relative viability (HCC-827; first compound 15.81 µM) was 0.181. The relative viability (HCC-827; first compound 50 µM) was 0.201, the relative viability (HCC-827; first compound 158.11 µM) was 0.179 and the relative viability (HCC-827; first compound 500 µM) was 0.127. For the same molecule, the relative viability (LCLC-103H; first compound 5 µM) was 0.738, the relative viability (LCLC-103H; first compound 15.81 µM) was 0.764 and the relative viability (LCLC-103H; first compound 50 µM) was 0.755. For the same molecule, the relative viability (LCLC-103H; first compound 158.11 µM) was 0.65, the relative viability (LCLC-103H; first compound 500 µM) was 0.501 and the relative viability (LK-2; first compound 5 µM) was 0.408. It also gave a relative viability (LK-2; first compound 15.81 µM) of 0.359, a relative viability (LK-2; first compound 50 µM) of 0.343 and a relative viability (LK-2; first compound 158.11 µM) of 0.355. It also gave a relative viability (LK-2; first compound 500 µM) of 0.289, a relative viability (LXF-289; first compound 5 µM) of 1 and a relative viability (LXF-289; first compound 15.81 µM) of 1. It also gave a relative viability (LXF-289; first compound 50 µM) of 1.03, a relative viability (LXF-289; first compound 158.11 µM) of 0.722 and a relative viability (LXF-289; first compound 500 µM) of 0.774. For the same molecule, the relative viability (NCI-H1651; first compound 5 µM) was 0.484, the relative viability (NCI-H1651; first compound 15.81 µM) was 0.421 and the relative viability (NCI-H1651; first compound 50 µM) was 0.421. The relative viability (NCI-H1651; first compound 158.11 µM) was 0.317, the relative viability (NCI-H1651; first compound 500 µM) was 0.45 and the relative viability (NCI-H1793; first compound 5 µM) was 0.447. It also gave a relative viability (NCI-H1793; first compound 15.81 µM) of 0.367, a relative viability (NCI-H1793; first compound 50 µM) of 0.372 and a relative viability (NCI-H1793; first compound 158.11 µM) of 0.11. The relative viability (NCI-H1793; first compound 500 µM) was 0.0077, the relative viability (NCI-H1915; first compound 5 µM) was 0.684 and the relative viability (NCI-H1915; first compound 15.81 µM) was 0.639. For the same molecule, the relative viability (NCI-H1915; first compound 50 µM) was 0.627, the relative viability (NCI-H1915; first compound 158.11 µM) was 0.535 and the relative viability (NCI-H1915; first compound 500 µM) was 0.303. The relative viability (NCI-H2087; first compound 5 µM) was 1.4, the relative viability (NCI-H2087; first compound 15.81 µM) was 0.87 and the relative viability (NCI-H2087; first compound 50 µM) was 1.16. The relative viability (NCI-H2087; first compound 158.11 µM) was 0.446, the relative viability (NCI-H2087; first compound 500 µM) was 0.01 and the relative viability (NCI-H2126; first compound 5 µM) was 0.935. The relative viability (NCI-H2126; first compound 15.81 µM) was 0.966, the relative viability (NCI-H2126; first compound 50 µM) was 0.991 and the relative viability (NCI-H2126; first compound 158.11 µM) was 0.348. For the same molecule, the relative viability (NCI-H2126; first compound 500 µM) was 0.788, the relative viability (NCI-H2347; first compound 5 µM) was 0.735 and the relative viability (NCI-H2347; first compound 15.81 µM) was 0.787. It also gave a relative viability (NCI-H2347; first compound 50 µM) of 0.715, a relative viability (NCI-H2347; first compound 158.11 µM) of 0.718 and a relative viability (NCI-H2347; first compound 500 µM) of 0.435. The relative viability (NCI-H358; first compound 5 µM) was 0.569, the relative viability (NCI-H358; first compound 15.81 µM) was 0.451 and the relative viability (NCI-H358; first compound 50 µM) was 0.474. For the same molecule, the relative viability (NCI-H358; first compound 158.11 µM) was 0.438, the relative viability (NCI-H358; first compound 500 µM) was 0.56 and the relative viability (NCI-H460; first compound 5 µM) was 0.633. It also gave a relative viability (NCI-H460; first compound 15.81 µM) of 0.529, a relative viability (NCI-H460; first compound 50 µM) of 0.613 and a relative viability (NCI-H460; first compound 158.11 µM) of 0.418. It also gave a relative viability (NCI-H460; first compound 500 µM) of 0.291, a relative viability (NCI-H596; first compound 5 µM) of 1.16 and a relative viability (NCI-H596; first compound 15.81 µM) of 0.939. It also gave a relative viability (NCI-H596; first compound 50 µM) of 1.11, a relative viability (NCI-H596; first compound 158.11 µM) of 0.818 and a relative viability (NCI-H596; first compound 500 µM) of 0.0374.
